Patent US20130243847A1, “ACTIVATED CREATININE AND PRECURSORS THEREOF AS ANTIBACTERIAL AGENTS, COMPOSITIONS AND PRODUCTS CONTAINING SUCH AGENTS AND USE THEREOF” (BOARD OF REGENTS OF THE UNIVERSITY OF NEBRASKA, priority 2010, published 2013)

Legend:
Assay type in all cases: cell-based
[1] = test system: Acinetobacter baumannii high level resistance (HLR); assay: Disc diffusion assay, CEE vs gentamicin; conditions: A. baumannii HLR; 50 mg anhydrous topical cream with 28% by weight agent; gentamicin 10 μg disc
Procedure: (§1) This testing involved the use of 50 mg of an anhydrous topical cream containing the antibacterial agent of the invention in an amount of 28% by weight and 10 μg of gentamicin, impregnated into a standard commercially available disc (Remel, Lenoxa Kans.).

[2] = test system: Bacillus cereus laboratory strain; assay: Disc diffusion assay, CEE vs gentamicin; conditions: B. cereus laboratory strain; 50 mg anhydrous topical cream with 28% by weight agent
Procedure: as §1

[3] = test system: Bacillus subtilis laboratory strain; assay: Disc diffusion assay, CEE vs gentamicin; conditions: B. subtilis laboratory strain; 50 mg anhydrous topical cream with 28% by weight agent
Procedure: as §1

[4] = test system: Brevibacterium linens ATCC 9175; assay: Disc diffusion assay, CEE vs gentamicin; conditions: B. linens ATCC 9175; 50 mg anhydrous topical cream with 28% by weight agent
Procedure: as §1

[5] = test system: Candida albicans laboratory strain 24433; assay: Disc diffusion assay, CEE vs gentamicin; conditions: C. albicans laboratory strain 24433; 50 mg anhydrous topical cream with 28% by weight agent; gentamicin 10 μg disc
Procedure: as §1

[6] = test system: Enterococcus faecalis laboratory strain 29212; assay: Disc diffusion assay, CEE vs gentamicin; conditions: E. faecalis laboratory strain 29212; 50 mg anhydrous topical cream with 28% by weight agent; gentamicin 10 μg disc
Procedure: as §1

[7] = test system: Enterococcus faecium vancomycin resistant (VRE); assay: Disc diffusion assay, CEE vs gentamicin; conditions: E. faecium VRE; 50 mg anhydrous topical cream with 28% by weight agent; gentamicin 10 μg disc
Procedure: as §1

[8] = test system: Escherichia coli laboratory strain 35150; assay: Disc diffusion assay, CEE vs gentamicin; conditions: E. coli laboratory strain 35150; 50 mg anhydrous topical cream with 28% by weight agent; gentamicin 10 μg disc
Procedure: as §1

[9] = test system: Micrococcus luteus laboratory isolate; assay: Disc diffusion assay, CEE vs gentamicin; conditions: M. luteus laboratory isolate; 50 mg anhydrous topical cream with 28% by weight agent
Procedure: as §1

[10] = test system: Pseudomonas aeruginosa high level resistance (HLR); assay: Disc diffusion assay, CEE vs gentamicin; conditions: P. aeruginosa HLR; 50 mg anhydrous topical cream with 28% by weight agent; gentamicin 10 μg disc
Procedure: as §1

[11] = test system: Pseudomonas aeruginosa laboratory strain 27853; assay: Disc diffusion assay, CEE vs gentamicin; conditions: P. aeruginosa laboratory strain 27853; 50 mg anhydrous topical cream with 28% by weight agent; gentamicin 10 μg disc
Procedure: as §1

[12] = test system: Pseudomonas fluorescens laboratory strain; assay: Disc diffusion assay, CEE vs gentamicin; conditions: P. fluorescens laboratory strain; 50 mg anhydrous topical cream with 28% by weight agent
Procedure: as §1

[13] = test system: Rhodotorula sp. laboratory isolate; assay: Disc diffusion assay, CEE vs gentamicin; conditions: 50 mg anhydrous topical cream with 28% by weight agent
Procedure: as §1

[14] = test system: Saccharomyces sp. isolate from baker's yeast; assay: Disc diffusion assay, CEE vs gentamicin; conditions: 50 mg anhydrous topical cream with 28% by weight agent
Procedure: as §1

[15] = test system: Staphylococcus aureus UMSA-1 isolate; assay: Disc diffusion assay, CEE vs gentamicin; conditions: S. aureus UMSA-1 isolate; 50 mg anhydrous topical cream with 28% by weight agent
Procedure: as §1

[16] = test system: Staphylococcus aureus laboratory strain 29213; assay: Disc diffusion assay, CEE vs gentamicin; conditions: S. aureus laboratory strain 29213; 50 mg anhydrous topical cream with 28% by weight agent; gentamicin 10 μg disc
Procedure: as §1

[17] = test system: Staphylococcus aureus methicillin resistant (MRSA); assay: Disc diffusion assay, CEE vs gentamicin; conditions: S. aureus MRSA; 50 mg anhydrous topical cream with 28% by weight agent; gentamicin 10 μg disc
Procedure: as §1

[18] = test system: Staphylococcus epidermidis laboratory strain; assay: Disc diffusion assay, CEE vs gentamicin; conditions: S. epidermidis laboratory strain; 50 mg anhydrous topical cream with 28% by weight agent
Procedure: as §1

[19] = test system: Escherichia coli beta lactamase producer (ESBL); conditions: E. coli ESBL; 50 mg anhydrous topical cream with 28% by weight agent; gentamicin 10 μg disc
Procedure: as §1

[20] = test system: S. aureus; assay: Disc diffusion assay in hydrogel carrier (Example 8)
Procedure: Separate formulations of antibacterially-activated CRN and a precursor of antibacterially-activated CRN, CEE, were prepared by admixing the respective antibacterial agent with a hydrogel (Advanced Medical Solutions Ltd, UK.) in varying amounts to provide final concentrations of 1 M, 500 mM, 250 mM and 125 mM. Approximately 50 μL of each formulation at the four (4) different molar concentrations was added to a 6 mm disc and inverted onto a brain heart infusion agar plate that was previously spread with S. aureus suspended in PBS at 10^5 organisms per mL. Plates were incubated at 37° C. overnight and clear zones showing inhibition of bacterial growth were measured. The hydrogel carrier including no bacterial agent (0 mM) was used as a control.

CCOC(=O)CN(C)C(=N)N [CEE, creatine ethyl ester]
Zone of Inhibition [1]: 16 mm | Zone of Inhibition [2]: 22 mm | Zone of Inhibition [3]: 20 mm | Zone of Inhibition [4]: 40 mm | Zone of Inhibition [5]: 0 mm | Zone of Inhibition [6]: 19 mm | Zone of Inhibition [7]: 18 mm | Zone of Inhibition [8]: 15 mm | Zone of Inhibition [9]: 22 mm | Zone of Inhibition [10]: 25 mm | Zone of Inhibition [11]: 27 mm | Zone of Inhibition [12]: 18 mm | Zone of Inhibition [13]: 0 mm | Zone of Inhibition [14]: 0 mm | Zone of Inhibition [15]: 24 mm | Zone of Inhibition [16]: 26 mm | Zone of Inhibition [17]: 27 mm | Zone of Inhibition [18]: 27 mm | Zone of Inhibition [19]: 19 mm | zone of inhibition at 125000 µM ([20]; Staphylococcus aureus): 7 mm | zone of inhibition at 250000 µM ([20]; Staphylococcus aureus): 10 mm | zone of inhibition at 500000 µM ([20]; Staphylococcus aureus): 15 mm | Zone of Inhibition ([20]; hydrogel, 1M, approx. 50 μL): 20 mm
